Measurements as given in patent US6914045B2, “Glycopeptide antibiotics” (Wyeth Holdings Corporation, priority 2001, dated 2005).
Values after ≈ are worked out from the molar mass of the structure shown.

Key:
Escherichia coli = test: in vitro antibacterial evaluation, MIC by broth dilution; format: cell-based; settings: 18 hours at 35° C.
Staphylococcus sp. = test: as above; format: cell-based; settings: broth dilution, 18 hours at 35° C.
In short: (§1)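 Following National Committee for Clinical Laboratory Standards recommendations (M7-A2), susceptibility was measured by dilution in Muller-Hinton II […]. Bacteria were seeded at 5×10^5 CFU/mL against compound concentrations from 64 down to 0.06 μg/mL.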

Streptococcus sp. = test: as above; format: cell-based; settings: broth dilution, 18 hours at 35° C.
In short: as §1

Enterococcus sp. = test: as above; format: cell-based; settings: broth dilution, 18 hours at 35° C.
In short: as §1

[1] = test system: Staphylococcus aureus-SMITH (GC 4543); test: acute lethal infection in mice; format: in vivo; settings: acute lethal infection, female CD-1 mice, intraperitoneal challenge, intravenous 30 min. after infection, 7 day survival
In short: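 ED50 from 7 day survival ratios pooled over 3 separate tests. Female CD-1 mice, 20+/−2 gm, ip bacterial challenge (trypticase soy broth or hog gastric mucin) lethal to untreated controls in 24-48 hr; iv dosing 30 min after infection in saline or 5% dextrose, n=5/dose.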

[2] = anatomic pathology (histopathology of heart and kidney) in mice; format: in vivo; settings: CD-1 mice, 20 mg/kg intravenously daily for 9 days, necropsy day 10, microscopic histopathology
Procedure: Samples of tissues from necropsied mice were formalin-fixed, paraffin-embedded, sectioned, stained with hematoxylin and eosin, and examined microscopically. Histopathologic findings were recorded. These findings were subjectively graded on a scale corresponding to slight, mild, moderate, marked and severe as compared to untreated controls.

COc1ccc2cc(COC3C(CO)OC(OC4C(CO)OC(Oc5ccc(CC6NC(=O)C(C(C)c7ccccc7)NC(=O)CNC(=O)C(CO)NC(=O)C(C(O)C7CNC(=N)N7C7OC(CO)C(O)C(O)C7O)NC(=O)C(C(O)C7CNC(=N)N7)NC6=O)cc5)C(O)C4O)C(O)C3O)ccc2c1 (stereo not drawn) [Example 230a, Cyclo[glycyl-β-methylphenylalanyl-O-[4-O-[4-O-[(6-methoxy-2-naphthyl)methyl]hexopyranosyl]hexopyranosyl]tyrosyl-3-(2-iminoimidazolidin-4-yl)seryl-3-(3-hexopyranosyl-2-iminoimidazolidin-4-yl)serylseryl]]
MIC Escherichia coli (ATCC 25922) (Escherichia coli): 32 µg/mL (≈ 21.8 µM)
MIC Escherichia coli (GC 4559) (Escherichia coli): 32 µg/mL (≈ 21.8 µM)
MIC Escherichia coli (GC 4560) (Escherichia coli): 0.25 to 1 µg/mL
MIC Coagulase Negative Staphylococcus (GC 4547) (Staphylococcus sp.): 0.5 to 2 µg/mL
MIC Coagulase Negative Staphylococcus (GC 4548) (Staphylococcus sp.): 0.12 to 0.5 µg/mL
MIC Coagulase Negative Staphylococcus (GC 4549) (Staphylococcus sp.): 0.12 to 0.5 µg/mL
MIC Coagulase Negative Staphylococcus (GC 4551) (Staphylococcus sp.): 0.25 to 1 µg/mL
MIC Coagulase Negative Staphylococcus (GC 6257) (Staphylococcus sp.): 0.25 to 0.5 µg/mL
MIC Staphylococcus aureus (ATCC 29213) (Staphylococcus sp.): 1 to 2 µg/mL
MIC Staphylococcus aureus (GC 1131) (Staphylococcus sp.): 0.5 to 2 µg/mL
MIC Staphylococcus aureus (GC 3051) (Staphylococcus sp.): 1 to 2 µg/mL
MIC Staphylococcus aureus (GC 3053) (Staphylococcus sp.): 1 to 2 µg/mL
MIC Staphylococcus aureus (GC 4541) (Staphylococcus sp.): 0.5 to 2 µg/mL
MIC Staphylococcus aureus (GC 4542) (Staphylococcus sp.): 0.25 to 2 µg/mL
MIC Staphylococcus aureus (GC 4544) (Staphylococcus sp.): 1 to 2 µg/mL
MIC Staphylococcus aureus (GC 4545) (Staphylococcus sp.): 0.5 to 1 µg/mL
MIC Staphylococcus aureus-SMITH (GC 4543) (Staphylococcus sp.): 0.5 to 2 µg/mL
MIC Staphylococcus haemolyticus (GC 4546) (Staphylococcus sp.): 0.25 to 1 µg/mL
MIC Staphylococcus aureus (ATCC 29213) (Staphylococcus sp.; strain ATCC 29213): 1 to 2 µg/mL
MIC Staphylococcus aureus (GC 1131) (Staphylococcus sp.; strain GC 1131): 0.5 to 2 µg/mL
MIC Staphylococcus aureus (GC 3051) (Staphylococcus sp.; strain GC 3051): 1 to 2 µg/mL
MIC Staphylococcus aureus (GC 3053) (Staphylococcus sp.; strain GC 3053): 1 to 2 µg/mL
MIC Staphylococcus aureus (GC 4541) (Staphylococcus sp.; strain GC 4541): 0.5 to 2 µg/mL
MIC Staphylococcus aureus (GC 4542) (Staphylococcus sp.; strain GC 4542): 0.25 to 2 µg/mL
MIC Staphylococcus aureus-SMITH (GC 4543) (Staphylococcus sp.; strain GC 4543): 0.5 to 2 µg/mL
MIC Staphylococcus aureus (GC 4544) (Staphylococcus sp.; strain GC 4544): 1 to 2 µg/mL
MIC Staphylococcus aureus (GC 4545) (Staphylococcus sp.; strain GC 4545): 0.5 to 1 µg/mL
MIC Staphylococcus haemolyticus (GC 4546) (Staphylococcus sp.; strain GC 4546): 0.25 to 1 µg/mL
MIC Coagulase Negative Staphylococcus (GC 4547) (Staphylococcus sp.; strain GC 4547): 0.5 to 2 µg/mL
MIC Coagulase Negative Staphylococcus (GC 4548) (Staphylococcus sp.; strain GC 4548): 0.12 to 0.5 µg/mL
MIC Coagulase Negative Staphylococcus (GC 4549) (Staphylococcus sp.; strain GC 4549): 0.12 to 0.5 µg/mL
MIC Coagulase Negative Staphylococcus (GC 4551) (Staphylococcus sp.; strain GC 4551): 0.25 to 1 µg/mL
MIC Coagulase Negative Staphylococcus (GC 6257) (Staphylococcus sp.; strain GC 6257): 0.25 to 0.5 µg/mL
MIC Streptococcus agalactiae (GC 4564) (Streptococcus sp.): <0.06 to 0.12 µg/mL
MIC Streptococcus pneumoniae (ATCC 6301) (Streptococcus sp.): <0.06 µg/mL
MIC Streptococcus pneumoniae (GC 1894) (Streptococcus sp.): <0.06 µg/mL
MIC Streptococcus pneumoniae (GC 4565) (Streptococcus sp.): <0.06 µg/mL
MIC Streptococcus pyogenes (GC 4563) (Streptococcus sp.): <0.06 to 0.25 µg/mL
MIC Streptococcus pneumoniae (ATCC 6301) (Streptococcus sp.; inoculum 5×10^5 CFU/mL, strain ATCC 6301): <0.06 µg/mL
MIC Streptococcus pneumoniae (GC 1894) (Streptococcus sp.; inoculum 5×10^5 CFU/mL, strain GC 1894): <0.06 µg/mL
MIC Streptococcus pyogenes (GC 4563) (Streptococcus sp.; inoculum 5×10^5 CFU/mL, strain GC 4563): <0.06 to 0.25 µg/mL
MIC Streptococcus agalactiae (GC 4564) (Streptococcus sp.; inoculum 5×10^5 CFU/mL, strain GC 4564): <0.06 to 0.12 µg/mL
MIC Streptococcus pneumoniae (GC 4565) (Streptococcus sp.; inoculum 5×10^5 CFU/mL, strain GC 4565): <0.06 µg/mL
MIC Enterococcus avium (GC 4558) (Enterococcus sp.): 2 to 4 µg/mL
MIC Enterococcus faecalis (ATCC 29212) (Enterococcus sp.): 2 to 4 µg/mL
MIC Enterococcus faecalis (GC 2242) (Enterococcus sp.): 2 to 4 µg/mL
MIC Enterococcus faecalis (GC 2691) (Enterococcus sp.): 2 to 4 µg/mL
MIC Enterococcus faecalis (GC 3059) (Enterococcus sp.): 2 to 4 µg/mL
MIC Enterococcus faecalis (GC 4552) (Enterococcus sp.): 2 to 4 µg/mL
MIC Enterococcus faecalis (GC 4553) (Enterococcus sp.): 2 to 4 µg/mL
MIC Enterococcus faecalis (GC 4554) (Enterococcus sp.): 2 to 4 µg/mL
MIC Enterococcus faecalis (GC 6189) (Enterococcus sp.): 1 to 4 µg/mL
MIC Enterococcus faecium (GC 2243) (Enterococcus sp.): 2 to 4 µg/mL
MIC Enterococcus faecium (GC 4556) (Enterococcus sp.): 2 to 4 µg/mL
MIC Enterococcus faecium (GC 4557) (Enterococcus sp.): 1 to 2 µg/mL
MIC Enterococcus faecalis (ATCC 29212) (Enterococcus sp.; inoculum 5×10^5 CFU/mL, strain ATCC 29212): 2 to 4 µg/mL
MIC Enterococcus faecalis (GC 2242) (Enterococcus sp.; inoculum 5×10^5 CFU/mL, strain GC 2242): 2 to 4 µg/mL
MIC Enterococcus faecium (GC 2243) (Enterococcus sp.; inoculum 5×10^5 CFU/mL, strain GC 2243): 2 to 4 µg/mL
MIC Enterococcus faecalis (GC 2691) (Enterococcus sp.; inoculum 5×10^5 CFU/mL, strain GC 2691): 2 to 4 µg/mL
MIC Enterococcus faecalis (GC 3059) (Enterococcus sp.; inoculum 5×10^5 CFU/mL, strain GC 3059): 2 to 4 µg/mL
MIC Enterococcus faecalis (GC 4552) (Enterococcus sp.; inoculum 5×10^5 CFU/mL, strain GC 4552): 2 to 4 µg/mL
MIC Enterococcus faecalis (GC 4553) (Enterococcus sp.; inoculum 5×10^5 CFU/mL, strain GC 4553): 2 to 4 µg/mL
MIC Enterococcus faecalis (GC 4554) (Enterococcus sp.; inoculum 5×10^5 CFU/mL, strain GC 4554): 2 to 4 µg/mL
MIC Enterococcus faecium (GC 4556) (Enterococcus sp.; inoculum 5×10^5 CFU/mL, strain GC 4556): 2 to 4 µg/mL
MIC Enterococcus faecium (GC 4557) (Enterococcus sp.; inoculum 5×10^5 CFU/mL, strain GC 4557): 1 to 2 µg/mL
MIC Enterococcus avium (GC 4558) (Enterococcus sp.; inoculum 5×10^5 CFU/mL, strain GC 4558): 2 to 4 µg/mL
MIC Enterococcus faecalis (GC 6189) (Enterococcus sp.; inoculum 5×10^5 CFU/mL, strain GC 6189): 1 to 4 µg/mL
median effective dose (ED50), Staphylococcus aureus-SMITH (GC 4543) [1]: 0.06 mg/kg
Anatomical Pathology (Day 10), Heart [2]: 0
Anatomical Pathology (Day 10), Kidney [2]: +
